Measurements taken from patent US20080317805A1, “LOCALLY ADMINISTRATED LOW DOSES OF CORTICOSTEROIDS” (priority 2007, published 2008).
Entries after “also recorded” stand apart in the source; their conditions may differ.

Key:
[1] = tested on: rat chronic constriction injury (CCI) model; assay: Von Frey mechanical threshold, local pump delivery, rat CCI model; assay type: in vivo; details: 0.0032, 0.016, 0.08 ng/hour by pump, each day tested; not statistically significant
Method: (§1) Mechanical allodynia is measured using von Frey monofilament test (Stoelting, Wood Dale, Ill.). The plantar surface of the CCI paw of each animal is tested as described by Chaplan et al. (1994). Each animal is placed in a suspended clear plastic chamber with a wire mesh bottom. Prior to testing, each animal is acclimated for 15 minutes. The 50% paw withdrawal threshold response is determined by sequentially increasing or decreasing the stimulus strength according to the “up-down method” of Dixon (1980).
Testing begins with a filament with a buckling weight of 2.0 g and continued through a series of filaments applied in sequence, up to about 15 g. Each filament is applied with enough pressure to cause a buckle effect. The absence of a paw lifting/withdrawal response after 5 seconds prompts the use of the filament to the next higher weight. […] The mechanical paw withdrawal threshold of each animal is measured one day prior to surgery (per-surgical baseline) and on Days 8, 15, and 22.
The 50% paw withdrawal threshold is calculated (PWT; Luo and Calcutt, 2002, Chaplan et al. 1994) using the formula 10 (Xf+?d)/10,000, where Xf is the final von Frey filament used (log units), ? is a value that analyzes the response pattern (taken from the table published by Chaplan at al., 1994), and d is the mean difference between stimuli (log units). Data is analyzed using one-way ANOVA on each test. […]

[2] = Body weight gain during daily SC fluocinolone in CCI rats; assay type: in vivo, rat; details: for body weight difference to vehicle controls: 25 μg/kg SC daily
Method: (§2) The purpose of this study is to evaluate the efficacy of fluocinolone acetonide (Sigma Cat# F8880-25MG; Sigma Aldrich, St. Louis, Mo.), a potent corticosteroid, to reduce neuropathic pain in an animal model. This animal model involves pain-associated behaviors in male Wistar rats (300-326 g) following chronic constriction injury (CCI) induced by a procedure similar to that described by Bennett and Xie (1988). Under 2% isoflurane anesthesia, the rat's common sciatic nerve is exposed and freed from adherent tissue at mid-thigh by separating the muscle (biceps femoris) by blunt dissection. Four loose ligatures are placed 1 mm apart, using chromic gut (4-0 absorbable suture, Jorgensen Laboratories, Inc. Loveland, Colo.).
(§3) After CCI induction, each group (n=7) receive treatment via systemic injection. Vehicle control animals (Group 1) receive 1× phosphate buffered solution (PBS) intraperitoneally (IP) every three days, beginning the day of surgery (Day 0), etanercept (Group 2; 3 mg/kg) is administered IP every 3 days beginning Day 0. Animals in treatment Groups 3, 4 and 5 receive fluocinolone (0.5, 5, or 25 μg/kg) subcutaneously (SC) every day beginning Day 0.

[3] = tested on: rat chronic constriction injury (CCI) model; assay: Thermal hyperalgesia (paw withdrawal latency), systemically administered fluocinolone, rat CCI model; assay type: in vivo
Method: as §2, §3
(§4) Thermal hyperalgesia is measured using a plantar analgesia instrument (Stoelting, Wood Dale, Ill.). Prior to testing, each animal is placed on the plantar test apparatus, a clear plastic chamber, and is allowed to rest/acclimate for 15 minutes. A radiant (heat) beam stimulus is applied to the CCI paw of each animal. After paw withdrawal, an automated control interrupts both the stimulus and the timer. The heat source device is set at intensity 50, and a maximal cut-off at 15 seconds is set to prevent tissue damage. Thermal hyperalgesia paw withdrawal latency response of the injured site (right hind paw) of each animal is measured 2 days prior to CCI surgery (pre-injury baseline) on Days 7, 14, and 21 after surgery. Data from each test is analyzed by one-way ANOVA.

[4] = tested on: rat chronic constriction injury (CCI) model; assay: Thermal paw withdrawal latency, local pump delivery, rat CCI model; assay type: in vivo; details: 0.0032, 0.016, and 0.08 ng/hour by osmotic mini-pump, perineural; p<0.05
Method: as §4
Following the above experiments, the efficacy of locally administered, low dose of fluocinolone acetonide (Sigma Cat# F8880-25MG; Lot# 043K1167, Sigma Aldrich) and dexamethasone (Sigma Aldrich) is examined in the same CCI rat model. […]
Fluocinolone is administered at doses of 0.0032 ng/hour (0.02304 ng/kg/day), 0.016 ng/hour (0.1152 ng/kg/day), and 0.08 ng/hour (0.576 ng/kg/day). […] Thermal hyperalgesia, induced and measured as described above, is measured on Days −2, 7, 14, and 21. Mechanical allodynia, induced and measured as described above, is measured on Days −1, 8, 15, and 22.

[5] = tested on: rat chronic constriction injury (CCI) model; assay: Mechanical allodynia (von Frey 50% paw withdrawal threshold), systemically administered fluocinolone, rat CCI model; assay type: in vivo
Method: as §2, §3, §1
Testing begins with a filament with a buckling weight of 2.0 g and continued through a series of filaments applied in sequence, up to about 15 g. Each filament is applied with enough pressure to cause a buckle effect. The absence of a paw lifting/withdrawal response after 5 seconds prompts the use of the filament to the next higher weight. Paw withdrawal, indicates a positive response. The testing continues for four additional measurements and is used to calculate the response threshold. Four consecutive positive responses receive a score of 0.25 g, and five consecutive negative responses (i.e., no paw withdrawal) receives a score of 15 g. The mechanical paw withdrawal threshold of each animal is measured one day prior to surgery (per-surgical baseline) and on Days 8, 15, and 22.
The 50% paw withdrawal threshold is calculated (PWT; Luo and Calcutt, 2002, Chaplan et al. 1994) using the formula 10 (Xf+?d)/10,000, where Xf is the final von Frey filament used (log units), ? is a value that analyzes the response pattern (taken from the table published by Chaplan at al., 1994), and d is the mean difference between stimuli (log units). Data is analyzed using one-way ANOVA on each test.

## CC1(C)O[C@@H]2C[C@H]3[C@@H]4C[C@H](F)C5=CC(=O)C=C[C@]5(C)[C@@]4(F)[C@@H](O)C[C@]3(C)[C@]2(C(=O)CO)O1 [Fluocinolone, fluocinolone acetonide]
[1]
  mechanical threshold (von Frey): increases in the mechanical threshold
[2]; 25 μg/kg SC daily for 21 days
  body weight gain compared with vehicle controls: significant decrease in body weight gain
[2]; Day 5
  body weight difference to vehicle controls: ~10 g
[2]; by Day 22
  body weight difference to vehicle controls: ~50 g
[2]; 0.5 or 5 μg/kg SC daily for 21 days
  body weight gain: does not have any effect on body weight gain
[3]; 0.5 μg/kg every day, Day 7
  Thermal Paw Withdrawal Latencies as Percent Baseline, Mean: 71.6 Percent Baseline
[3]; 0.5 μg/kg every day, Day 14
  Thermal Paw Withdrawal Latencies as Percent Baseline, Mean: 70.8 Percent Baseline
[3]; 0.5 μg/kg every day, Day 21
  Thermal Paw Withdrawal Latencies as Percent Baseline, Mean: 63.1 Percent Baseline
[3]; 0.5 μg/kg, Day 7, p<0.05
  thermal latency, t-test compared to etanercept: significant increase in latency on Day 7
[3]; 0.5 μg/kg, Days 14 and 21, n.s.
  thermal latency, t-test compared to etanercept: not on Days 14 and 21
[3]; 0.5 μg/kg/day, only statistically significant on Day 7
  thermal latencies compared with etanercept: tends to improve thermal latencies over etanercept
[3]; 5 μg/kg every day, Day 7
  Thermal Paw Withdrawal Latencies as Percent Baseline, Mean: 79.7 Percent Baseline
[3]; 5 μg/kg every day, Day 14
  Thermal Paw Withdrawal Latencies as Percent Baseline, Mean: 83.8 Percent Baseline
[3]; 5 μg/kg every day, Day 21
  Thermal Paw Withdrawal Latencies as Percent Baseline, Mean: 80.2 Percent Baseline
[3]; 5 μg/kg, Days 7, 14, 21, p<0.05
  thermal latency, t-test compared to etanercept: significant increase in latency on all testing days
[3]; 25 μg/kg every day, Day 7
  Thermal Paw Withdrawal Latencies as Percent Baseline, Mean: 67.4 Percent Baseline
[3]; 25 μg/kg every day, Day 14
  Thermal Paw Withdrawal Latencies as Percent Baseline, Mean: 80.9 Percent Baseline
[3]; 25 μg/kg every day, Day 21
  Thermal Paw Withdrawal Latencies as Percent Baseline, Mean: 80.0 Percent Baseline
[3]; 0.5, 5 and 25 μg/kg/day SC, Days 7, 14, 21, p<0.05
  thermal latency relative to vehicle controls: increase in thermal latency relative to vehicle controls; also recorded: significantly increases the paw withdrawal latency period; also recorded: significant increase in thermal latency
[3]; 5 and 25 μg/kg/day, all days tested, etanercept 3 mg/kg IP every 3 days, ANOVA p<0.05
  thermal hyperalgesia compared with etanercept: improves thermal hyperalgesia significantly greater than etanercept
[3]; Day 7, Fisher LSD, p<0.05
  thermal latency, 5 μg/kg dose compared with 25 μg/kg dose: significantly more effective than 25 μg/kg dose
[3]; Days 14 and 21, Fisher LSD, p<0.05
  thermal latency, 5 and 25 μg/kg doses compared with 0.5 μg/kg dose: significantly more effective than the 0.5 μg/kg dose
[4]
  thermal paw withdrawal latency compared to PBS: increases in the thermal paw withdrawal latency tests compared to PBS
[5]; 0.5 μg/kg every day, Day 8
  Von Frey Filament "Allodynia" Latencies as Percent of Baseline, Mean: 45.2% of Baseline
[5]; 0.5 μg/kg every day, Day 15
  Von Frey Filament "Allodynia" Latencies as Percent of Baseline, Mean: 47.1% of Baseline
[5]; 0.5 μg/kg every day, Day 22
  Von Frey Filament "Allodynia" Latencies as Percent of Baseline, Mean: 66.2% of Baseline
[5]; 5 μg/kg every day, Day 8
  Von Frey Filament "Allodynia" Latencies as Percent of Baseline, Mean: 54.8% of Baseline
[5]; 5 μg/kg every day, Day 15
  Von Frey Filament "Allodynia" Latencies as Percent of Baseline, Mean: 57.5% of Baseline
[5]; 5 μg/kg every day, Day 22
  Von Frey Filament "Allodynia" Latencies as Percent of Baseline, Mean: 55.2% of Baseline
[5]; 25 μg/kg every day, Day 8
  Von Frey Filament "Allodynia" Latencies as Percent of Baseline, Mean: 76.3% of Baseline
[5]; 25 μg/kg every day, Day 15
  Von Frey Filament "Allodynia" Latencies as Percent of Baseline, Mean: 68.9% of Baseline
[5]; 25 μg/kg every day, Day 22
  Von Frey Filament "Allodynia" Latencies as Percent of Baseline, Mean: 70.3% of Baseline
[5]; 0.5, 5, 25 μg/kg/day, not statistically significant
  mechanical allodynia compared with etanercept: tend to improve mechanical allodynia over etanercept; also recorded: does not reveal any significant differences
[5]; 0.5, 5, or 25 μg/kg/day SC, overall ANOVA
  mechanical allodynia compared with vehicle controls: significantly improves (overall ANOVA) mechanical allodynia
